Source: patent US10295551B2, “Development and use of fluorescent probes of unbound bilirubin” (Alan Marc Kleinfeld, priority 2011, dated 2019)

How the values were obtained:
[1] = target: T1, rI-FABP (SEQ ID NO: 3) variant BL22P1B11, MGI-KR14-14R 18L 25C 27A 38V 60R 73F 106L 115R 117D, SEQ ID NO: 35 (Rattus norvegicus, UniProt P02693, A74F/K101R/K126R/K17R/K21R/K28A/K30R/K38R/K47R/K51R/K89R/K8R/K93R/K95R/L39V/L73A/M19L/Q116R/R107L/V26C/V61R/Y118D/Y15R); type: binding; details: Table 5, Alexa Fluor 680 C2-maleimide; read-out: Kd
T1 construct: made in house

[2] = target: T2, rI-FABP (SEQ ID NO: 3) variant L2P14F7-MGCFD, MGCFD - 18G 31M 72A (Rattus norvegicus, UniProt P02693, A2G/G32M/INS2C/L73A/M19G); assay: bilirubin binding to L2P14F7-MGCFD probe; details: Table 5, Texas Red C2-Maleimide
T2 construct: made in house
Protocol: (§1) Also described are analytical/mathematical methods for calibrating and using the bilirubin probes. Bilirubin probes are calibrated to determine their binding affinity for bilirubin (dissociation constant Kd) under conditions, such as temperature, pH and solution composition, that correspond to samples in which it is desired to know the unbound bilirubin concentration. Binding isotherms are performed in aqueous buffer by measuring the change in fluorescence of the bilirubin probes in response to increasing bilirubin concentrations (“titration data”). The set of fluorescence responses at each bilirubin concentration are fitted with an appropriate equation (“calibration equation”) that correctly describes the fluorescence response as a function of the bilirubin concentration, the probe concentration, specific spectroscopic characteristics, and the Kd.

[3] = target: T3, rI-FABP (SEQ ID NO: 3) variant L2P14F7 MGI KR14 K27C, MGI - KR14 - 18G 27C 31M 72A (Rattus norvegicus, UniProt P02693, A2G/G32M/INS2I/K101R/K126R/K130R/K131R/K17R/K21R/K28C/K30R/K38R/K47R/K51R/K89R/K8R/K93R/K95R/L73A/M19G); assay: bilirubin binding to L2P14F7 MGI KR14 K27C probe; details: Table 5, acrylodan
T3 construct: made in house
Protocol: as §1

[4] = target: T4, rI-FABP (SEQ ID NO: 3) variant L10P9 E6, 14T 18L 73M 117C 72A (Rattus norvegicus, UniProt P02693, A74M/L73A/M19L/Y118C/Y15T); assay: bilirubin binding to L10P9E6 probe; details: Table 5, acrylodan
T4 construct: made in house
Protocol: as §1

[5] = target: T5, rI-FABP (SEQ ID NO: 3) variant L22P19 B9, 38R 72A 73M 106Q 115C (Rattus norvegicus, UniProt P02693, A74M/L39R/L73A/Q116C/R107Q); assay: bilirubin binding to L22P19B9 probe; details: Table 5, acrylodan
T5 construct: made in house
Protocol: as §1

[6] = target: T6, rI-FABP (SEQ ID NO: 3) variant L22P33 A10, 38R 72A 73N 106S 115C (Rattus norvegicus, UniProt P02693, A74N/L39R/L73A/Q116C/R107S); assay: bilirubin binding to L22P33A10 probe; details: Table 5, acrylodan
T6 construct: made in house
Protocol: as §1

[7] = target: T7, rI-FABP (SEQ ID NO: 3) variant L24P19 C7 K27A, 14R 18L 27A 38V 60R 73F 106C 115R 117D (Rattus norvegicus, UniProt P02693, A74F/K28A/L39V/L73A/M19L/Q116R/R107C/V61R/Y118D/Y15R); assay: bilirubin binding to L24P19C7 K27A probe; details: Table 5, acrylodan
T7 construct: made in house
Protocol: as §1

[8] = target: T8, rI-FABP (SEQ ID NO: 3) variant L24P19 C7 K27K 22C, 14R 18L 22C 38V 60R 73F 106C 115R 117D (Rattus norvegicus, UniProt P02693, A74F/G23C/L39V/L73A/M19L/Q116R/R107C/V61R/Y118D/Y15R); assay: bilirubin binding to L24P19C7 22C probe; details: Table 5, acrylodan
T8 construct: made in house
Protocol: as §1
(§2) . […] The optimal probe performance was obtained with cysteine at positions 25 or 26.

[9] = target: T9, rI-FABP (SEQ ID NO: 3) variant L24P19 C7 K27K 25C, 14R 18L 25C 38V 60R 73F 106C 115R 117D (Rattus norvegicus, UniProt P02693, A74F/L39V/L73A/M19L/Q116R/R107C/V26C/V61R/Y118D/Y15R); assay: bilirubin binding to L24P19C7 25C probe; details: Table 5, acrylodan
T9 construct: made in house
Protocol: as §1, §2

[10] = target: T10, rI-FABP (SEQ ID NO: 3) variant L24P19 C7 K27K 30C, 14R 18L 30C 38V 60R 73F 106C 115R 117D (Rattus norvegicus, UniProt P02693, A74F/L31C/L39V/L73A/M19L/Q116R/R107C/V61R/Y118D/Y15R); assay: bilirubin binding to L24P19C7 30C probe; details: Table 5, acrylodan
T10 construct: made in house
Protocol: as §1, §2

[11] = target: T11, rI-FABP (SEQ ID NO: 3) variant BL10P10 D10, 14F 18L 27C 38M 60Y 73F 106V 115R 117D (Rattus norvegicus, UniProt P02693, A74F/K28C/L39M/L73A/M19L/Q116R/R107V/V61Y/Y118D/Y15F); assay: bilirubin binding to BL10P10D10 probe; details: Table 5, acrylodan
T11 construct: made in house
Protocol: as §1

T11 sequence (P02693 with tags, fused parts or gaps Y15F/M19L/K28C/L39M/V61Y/L73A/A74F/R107V/Q116R/Y118D): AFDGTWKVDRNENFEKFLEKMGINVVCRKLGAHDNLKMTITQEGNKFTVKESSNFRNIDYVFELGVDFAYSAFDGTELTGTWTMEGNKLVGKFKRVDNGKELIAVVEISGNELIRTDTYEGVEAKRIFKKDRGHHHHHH
T10 sequence (P02693 with tags, fused parts or gaps Y15R/M19L/L31C/L39V/V61R/L73A/A74F/R107C/Q116R/Y118D): as the sequence (P02693 with tags, fused parts or gaps Y15F/M19L/K28C/L39M/V61Y/L73A/A74F/R107V/Q116R/Y118D) above, with F14R, C27K, L30C, M38V, Y60R, V106C counted along it
T1 sequence (P02693 with tags, fused parts or gaps with the stated changes): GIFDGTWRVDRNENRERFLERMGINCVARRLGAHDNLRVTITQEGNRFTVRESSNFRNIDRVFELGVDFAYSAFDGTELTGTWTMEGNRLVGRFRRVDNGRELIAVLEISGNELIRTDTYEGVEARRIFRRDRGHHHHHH
T6 sequence (P02693 with tags, fused parts or gaps L39R/L73A/A74N/R107S/Q116C): as the sequence (P02693 with tags, fused parts or gaps Y15F/M19L/K28C/L39M/V61Y/L73A/A74F/R107V/Q116R/Y118D) above, with F14Y, L18M, C27K, M38R, Y60V, F73N, V106S, R115C, D117Y counted along it
T9 sequence (P02693 with tags, fused parts or gaps Y15R/M19L/V26C/L39V/V61R/L73A/A74F/R107C/Q116R/Y118D): as the sequence (P02693 with tags, fused parts or gaps Y15F/M19L/K28C/L39M/V61Y/L73A/A74F/R107V/Q116R/Y118D) above, with F14R, V25C, C27K, M38V, Y60R, V106C counted along it
T7 sequence (P02693 with tags, fused parts or gaps Y15R/M19L/K28A/L39V/V61R/L73A/A74F/R107C/Q116R/Y118D): as the sequence (P02693 with tags, fused parts or gaps Y15F/M19L/K28C/L39M/V61Y/L73A/A74F/R107V/Q116R/Y118D) above, with F14R, C27A, M38V, Y60R, V106C counted along it
T2 sequence (P02693 with tags, fused parts or gaps M19G/G32M/L73A): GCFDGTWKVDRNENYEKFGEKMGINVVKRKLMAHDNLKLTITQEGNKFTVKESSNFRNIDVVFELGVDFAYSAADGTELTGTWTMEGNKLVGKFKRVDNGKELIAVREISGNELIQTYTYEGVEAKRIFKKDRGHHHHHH
T3 sequence (P02693 with tags, fused parts or gaps with the stated changes): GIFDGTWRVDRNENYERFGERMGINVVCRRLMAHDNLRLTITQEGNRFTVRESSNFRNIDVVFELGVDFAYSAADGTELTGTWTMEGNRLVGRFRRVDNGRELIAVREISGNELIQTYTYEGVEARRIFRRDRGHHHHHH
T8 sequence (P02693 with tags, fused parts or gaps Y15R/M19L/G23C/L39V/V61R/L73A/A74F/R107C/Q116R/Y118D): as the sequence (P02693 with tags, fused parts or gaps Y15F/M19L/K28C/L39M/V61Y/L73A/A74F/R107V/Q116R/Y118D) above, with F14R, G22C, C27K, M38V, Y60R, V106C counted along it
T5 sequence (P02693 with tags, fused parts or gaps L39R/L73A/A74M/R107Q/Q116C): as the sequence (P02693 with tags, fused parts or gaps Y15F/M19L/K28C/L39M/V61Y/L73A/A74F/R107V/Q116R/Y118D) above, with F14Y, L18M, C27K, M38R, Y60V, F73M, V106Q, R115C, D117Y counted along it
T4 sequence (P02693 with tags, fused parts or gaps Y15T/M19L/L73A/A74M/Y118C): as the sequence (P02693 with tags, fused parts or gaps Y15F/M19L/K28C/L39M/V61Y/L73A/A74F/R107V/Q116R/Y118D) above, with F14T, C27K, M38L, Y60V, F73M, V106R, R115Q, D117C counted along it

C=CC1=C(C)/C(=C/c2[nH]c(Cc3[nH]c(/C=C4\NC(=O)C(C)=C4C=C)c(C)c3CCC(=O)O)c(CCC(=O)O)c2C)NC1=O [bilirubin]
Kd [1]: 110 nM | Kd [2]: 400 nM | Kd [3]: 350 nM | Kd [4]: 1430 nM | Kd [5]: 400 nM | Kd [6]: 245 nM | Kd [7]: 21 nM | Kd [8]: 71 nM | Kd [9]: 19 nM | Kd [10]: 26 nM | Kd [11]: 400 nM
